Legend:
CA1USR mAb = assay: Competition enzyme immunoassay (EIA): nucleotide competitors against CA1USR mAb binding to 2′-deoxy-2′-C-allyl Uridine-KLH; parameters: species or system murine; conditions: competitor nucleotides 500 to 7.8 μg/ml preincubated with CA1USR mAb; DNA-Bind plates coated with 2′-deoxy-2′-C-allyl Uridine-KLH; FIG. 2
Procedure: N-oxy-succinimide ester derivatized 96 well plates (DNA-Bind; Costar/Corning, Corning, N.Y.) were coated overnight at room temperature with 50 ng/well of 2′-deoxy-2′-C-allyl Uridine-KLH. After two washes with phosphate buffered saline, 0.1% Tween (PBS-T), plates were blocked for 1 h with PBS plus 1% casein (Pierce, Rockford, Ill.). Hybridoma supernatant was incubated on the plates for 1 h, after which wells were washed 4 times with PBS-T. Positive wells were detected with peroxidase-conjugated F(ab)′2 Goat anti-mouse IgG (Pel-Freez, Rogers, Ark.), and developed with TMB substrate (Kirkegaard and Perry, 2 component; Gaithersburg, Md.). Plates were read on a Molecular Dynamics plate reader (Molecular Dynamics, Sunnyvale, Calif.) at 450 nm with 595 nm correction.
DNA-Bind plates were coated overnight with 50 ng/well of 2′-deoxy-2′-C-allyl Uridine-conjugated KLH. 60 μl volumes of the purified CA1USR mAb, at a concentration of 500 ng/ml, were incubated at 37° C. for 30 min with 60 μl volumes of a series of concentrations of competitor nucleotides, from a concentration of 500 to 7.8 μg/ml. The antibody-competitor mixtures were then plated on the 2′-C-allyl-KLH coated DNA-Bind plates, and the EIA proceeded as described for the fusion screening assay.

[1] = Immunohistochemistry with CA1USR mAb on kidneys of ribozyme-treated mice (in vivo localization); conditions: for CA1USR mAb immunoreactivity (staining) in kidney: 3 subcutaneous injections of 100 mg/kg, kidney sections stained with CA1USR mAb 5 μg/ml
Procedure: Tissues were harvested from mice injected subcutaneously with either saline or a ribozyme from 60 to 120 min after injection. Animals were perfused with normal saline, then with a solution of 3% paraformaldehyde, 0.5% gluteraldehyde prior to tissue harvest. The tissue was placed in a 30% sucrose solution at 4° C. overnight, then removed, and frozen in a Gentle Jane (Instrumedics; Hackensack, N.J.) Snap-Freezing System with Cryo-Gel Embedding Medium (Instrumedics). Five micron (μm) sections were cut and placed on slides; the slides were allowed to air dry. Prior to staining, slides were quenched in 3% hydrogen peroxide and 0.5% horse serum in PBS, then blocked with M.O.M. Mouse Ig Blocking Reagent (Vector Labs, Burlingame, Calif.) for 1 h, washed with PBS, and stained with the CA1USR MAb at 5 μg/ml in M.O.M. diluent for 30 min. After washing, slides were incubated with M.O.M. Biotinylated Anti-Mouse IgG Reagent for 10 min, washed, and incubated with Vectastain Elite ABC Reagent for 5 min, then developed in DAB chromogen (Vector Labs). Slides were rinsed, counterstained with hematoxylin (Richard-Allan Scientific, Kalamazoo, Mich.), dehydrated, and cover-slipped. Slides were viewed on a Nikon Microphot FXA microscope.

inhibition of binding of CA1USR mAb to 2′-deoxy-2′-C-allyl Uridine-KLH (CA1USR mAb) | Compound | CA1USR mAb immunoreactivity (staining) in kidney [1] | Hematoxylin and eosin microscopy of granular structures in treated kidneys ([1]; 3 subcutaneous 100 mg/kg injections, kidney)
able to inhibit | C=CC[C@@H]1[C@H](O)[C@@H](CO)O[C@H]1n1ccc(=O)[nH]c1=O [2′-deoxy-2′-C-allyl Uridine] |  | 
 | unmodified HERZYME™ ribozyme: ribozyme targeted to Her2 mRNA, structure different from the hammerhead motif (GCAGUGGCCGAAAGGCGAGUGAGGUCUAGCUCA; called unmodified, meaning without 2'-C-allyl U14, full chemistry not given here) | no staining | 
 | ANGIOZYME® ribozyme: synthetic 35-mer hammerhead ribozyme directed against VEGFR-1 mRNA with 2′-deoxy-2′-C-allyl Uridine at U4 (GAGUUGCUGAUGAGGCCGAAAGGCCGAAAGUCUG; 2'-deoxy-2'-C-allyl uridine at U4, chemistry not fully specified) | intense 2′-deoxy-2′-C-allyl Uridine mAb immunoreactivity | basophilic in character

Reference: US7071311B2, “Antibodies having specificity for 2′-C-allyl nucleic acids” (Sirna Therapeutics, Inc., priority 2002, dated 2006)
